Tests used:
Conditions in all cases: exposure time 48 h
[1] = test system: Caenorhabditis elegans N2; assay: mean nematode size ln(EXT) after 48 h, plate-adjusted (DMSO control set to 6) (ln(EXT), control-adjusted); higher = larger nematodes / less growth inhibition
Summary of the method: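 In K-medium with killed OP50, 1% DMSO and 0.5–200 µM chemical, synchronised N2 L1 larvae of C. elegans (50 per well) grew for 48 h at 20°C. Extinction was read for every worm on the Biosort, with debris removed by a growth model. Natural-log values averaged per well gave mean size, which was corrected per plate by subtracting the vehicle control mean and adding 6.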

[2] = test system: Caenorhabditis elegans N2; assay: AC50 for larval growth inhibition (Hill fit); higher = less potent
Summary of the method: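 AC50 values come from a constrained Hill fit by weighted genetic-algorithm regression and are censored when out of range. The fit used only wells with at least 10 worms. Each well of a 96-well plate held 50 synchronised C. elegans N2 L1 larvae in K-medium with killed OP50, 1% DMSO and 0.5–200 µM chemical for 48 h at 20°C. A COPAS Biosort recorded each worm's size as extinction, which was log-transformed and averaged per well.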

[3] = test system: Caenorhabditis elegans N2; assay: lowest effective concentration for larval growth inhibition (size below effect threshold); higher = less potent
Summary of the method: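 C. elegans N2 L1 larvae (50 per 96-well) were grown 48 h at 20°C in K-medium with killed bacteria, 1% DMSO and 0.5, 1, 5, 10, 50, 100 or 200 µM chemical. The Biosort measured per-worm extinction as size, and these were log-transformed into well means. The lowest effective concentration is the first dose where the plate-adjusted mean size drops under the 5.665 threshold and stays under it at higher doses.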

Structure (SMILES) | mean nematode size ln(EXT) (ln) ([1]; 0.5 µM) | mean nematode size ln(EXT) (ln) ([1]; 1 µM) | mean nematode size ln(EXT) (ln) ([1]; 5 µM) | mean nematode size ln(EXT) (ln) ([1]; 10 µM) | mean nematode size ln(EXT) (ln) ([1]; 50 µM) | mean nematode size ln(EXT) (ln) ([1]; 100 µM) | mean nematode size ln(EXT) (ln) ([1]; 200 µM) | AC50 for larval growth inhibition [2] [µM] | lowest effective concentration [3] [µM]
COC(=O)c1ccccc1O [Methyl salicylate] | 5.89 | 5.86 | 5.82 | 5.75 | 5.81 | 5.78 | 5.26 | > 200 | 200
CC1=C(/C=C/C(C)=C/C=C/C(C)=C/C(=O)O)C(C)(C)CCC1 [Retinoic acid] | 5.96 | 5.78 | 5.8 | 5.58 | 4.47 | 4.33 | 4.41 | 16.6 | 10
Clc1ccc(Cl)c(Cl)c1 [1,2,4-Trichlorobenzene] | 5.82 | 5.79 | 5.69 | 5.76 | 5.66 | 5.84 | 4.27 | 186 | 200
C=CCOC(Cn1ccnc1)c1ccc(Cl)cc1Cl (stereo not given) [Imazalil] | 5.91 | 6.17 | 6.07 | 5.99 | 5.83 | 5.74 | 4.6 | > 200 | 200
Cc1cc(C)nc(Nc2ccccc2)n1 [Pyrimethanil] | 6 | 5.86 | 5.84 | 5.84 | 5.68 | 6.12 | 5.4 | 184 | 200
CCCN(CC)CC1COC2(CCC(C(C)(C)C)CC2)O1 (stereo not given) [Spiroxamine] | 5.61 | 5.84 | 5.9 | 6.1 | 5.84 | 6.17 | 3.97 | 184 | 200
Clc1ccccc1C(c1ccccc1)(c1ccccc1)n1ccnc1 [Clotrimazole] | 5.8 | 5.74 | 5.4 | 4.95 | 3.89 | 3.9 | 3.23 | 18.8 | 5
CCOP(=S)(OCC)OC(Cl)C(Cl)(Cl)Cl (stereo not given) [Chlorethoxyfos] | 5.75 | 5.76 | 5.76 | 5.7 | 4.54 | 5.09 | 3.42 | 13.2 | 50
O=c1[nH]cc(F)c(=O)[nH]1 [5-Fluorouracil] | 5.8 | 5.84 | 5.91 | 5.82 | 5.63 | 5.3 | 4.19 | 162 | 50
Nc1ccc(Oc2ccc(N)cc2)cc1 [4,4'-Oxydianiline] | 5.84 | 5.87 | 5.84 | 5.83 | 5.54 | 5.83 | 5.39 | > 200 | 200
Nc1cc(Cl)cc(C(=O)O)c1Cl [Chloramben] | 5.87 | 5.9 | 5.88 | 5.9 | 5.46 | 5.58 | 5.3 | > 200 | 50
Cc1oc(-c2ccccc2)nc1CCOc1ccc(C[C@H](Nc2ccccc2C(=O)c2ccccc2)C(=O)O)cc1 [Farglitazar] | 5.87 | 5.89 | 5.92 | 6.19 | 4.95 | 4.73 | 4.48 | 39 | 50
c1ccc2c(c1)Cc1ccccc1-2 [Diphenylenemethane] | 6.07 | 6.06 | 6.03 | 5.92 | 4.4 | 4.02 | 3.5 | 39.2 | 50
CC(C)(c1ccc(O)cc1)c1ccc(O)cc1 [Bisphenol A] | 5.83 | 5.86 | 5.99 | 5.88 | 5.95 | 5.96 | 5.46 | > 200 | 200
NC(=O)N1C(=O)C(C(=O)c2cc(Cl)cs2)c2cc(F)c(Cl)cc21 (stereo not given) | 5.49 | 4.96 | 4.54 | 4.37 | 4.04 | 4.02 | – | 1.41 | ≤ 0.5
S=C([S-])NCCNC(=S)[S-].S=C([S-])NCCNC(=S)[S-].[Mn+2].[Zn+2] [Mancozeb] | 5.79 | 5.84 | 5.84 | 5.85 | 5.83 | 5.7 | 5.39 | > 200 | 200
CCCCCOC(=O)COc1cc(N2C(=O)C3=C(CCCC3)C2=O)c(F)cc1Cl [Flumiclorac-pentyl] | 5.98 | 6.04 | 6.02 | 5.91 | 5.69 | 5.6 | 4.54 | > 200 | 100
CCCCCCCCCCCCCCCO [1-Pentadecanol] | 5.76 | 5.96 | 5.83 | 5.8 | 5.59 | 5.49 | 5.3 | > 200 | 50
COC(=O)N(OC)c1ccccc1COc1ccn(-c2ccc(Cl)cc2)n1 [Pyraclostrobin] | 6 | 5.89 | 5.83 | 5.89 | 5.21 | 4.93 | 4.43 | 97.6 | 50
CCNC(=O)NC(=O)/C(C#N)=N/OC [Cymoxanil] | 6.18 | 6.05 | 6.07 | 6.11 | 5.79 | 5.58 | 4.81 | > 200 | 100
OC12N=C(c3ccccc3)SC1Cc1cc(Cl)ccc12 (stereo not given) | 5.69 | 5.74 | 5.5 | 5.45 | 4.53 | 4.08 | 3.96 | 48.6 | 5
COc1ccc(OC(F)(F)F)cc1CN[C@H]1CCCN[C@H]1c1ccccc1 | 6.04 | 5.82 | 5.68 | 5.67 | 5.39 | 4.71 | 4.55 | 185 | 50
CCOP(=S)(OCC)Oc1nc(Cl)n(C(C)C)n1 [Isazofos] | 4.88 | 5.05 | 4.5 | 4.43 | 3.8 | 3.59 | 3.78 | 3.38 | ≤ 0.5
CCCCCC/C(C=O)=C\c1ccccc1 [2-Benzylideneoctanal] | 5.84 | 5.85 | 5.79 | 5.69 | 5.13 | 5.22 | 5.01 | 28.8 | 50

— the supplement of paper PMC4858399
